From BindingDB's records for doi:10.1016/j.bmcl.2012.12.050 (Actelion Pharmaceuticals, 2013)

Assay: Antagonist activity against CRTh2 receptor in human eosinophils assessed as cell shape change

IC50: 0.16 µM
SMILES: N#C/C(=C\c1cn(CC(=O)O)c2ccccc12)C(=O)N1CCCc2ccccc21
